Assay results taken from ChEMBL document CHEMBL1159079, “Pharmacophore modeling and virtual screening for designing potential 5-lipoxygenase inhibitors” (Bioorg Med Chem Lett, 2010).

Experiment: Inhibition of potato tuber 5LOX by polarographic method
Set-up: species or system Solanum tuberosum

CC(C)(C)c1cc(Cc2cccs2)cc2c1OCC2(C)C
IC50: 68000 nM

COc1cc(/C=C\C=C\c2nc3ncccc3o2)ccc1O
IC50: 370 nM

CCN1CC/C(=C/c2cc(C(C)(C)C)c(O)c(C(C)(C)C)c2)S1(=O)=O
IC50: 2500 nM

O=C1NCCN(c2ccccn2)N1
IC50: 26000 nM

Cc1ccc(-c2c(-c3ccc(S(C)(=O)=O)cc3)ssc2=S)cc1
IC50: 9000 nM

Cc1cccc(N2CCNC(=O)N2)c1
IC50: 15000 nM

CC1Cc2c(OCc3ccc(-c4ccccc4)cn3)ccc3c2c(c(CCOc2ccccc2CC(=O)O)n3Cc2cccc(F)c2)S1 (centres undefined)
IC50: 23 nM

FC(F)(F)c1cccc(Nc2ccccc2-c2n[nH]c(=S)o2)c1
IC50: 770 nM

CCN(C)C(=O)c1cc(C(C)(C)C)c2c(c1)C(C)(C)CO2
IC50: 22000 nM

O=C(O)Cc1c(-c2ccc(Cl)cc2)c(-c2ccccc2)c2n1CCC2
IC50: 1600 nM

CCCCC1CN(c2ccccc2)NC(=O)N1 (centres undefined)
IC50: 1500 nM

CS(=O)(=O)c1ccc(C#Cc2ccc(=O)n(C(F)F)c2)cc1
IC50: 3300 nM

NS(=O)(=O)c1ccc(C#Cc2ccc(=O)n(C(F)F)c2)cc1
IC50: 3500 nM

CC1Cc2c(OCc3ccc(-c4ccccc4)cn3)ccc3c2C(S1)C(CC(C)(C)CC(=O)NS(C)(=O)=O)N3Cc1ccc(Cl)cc1 (centres undefined)
IC50: 36 nM

COC(=O)c1c(Nc2cccc(Cl)c2)[nH]c2ccc(O)cc12
IC50: 300 nM

NS(=O)(=O)c1cccc(C#Cc2ccc(=O)n(O)c2)c1
IC50: 15000 nM

COc1ccc(-c2sncc2-c2ccc(C)cc2)cc1
IC50: 8000 nM

O=C(O)/C=C/c1ccc(O)c(O)c1 [CAFFEIC ACID]
IC50: 4000 nM

CC(C)(C)OC(=O)N1CCN(C(=O)CCCC2=CCc3ccccc32)CC1
IC50: 740 nM

CC(=O)Nc1ccc(/C(=C/c2ccc(S(C)(=O)=O)cc2)C(=O)O)cc1
IC50: 110 nM

CCCC(=O)c1cc(C(C)(C)C)c2c(c1)C(C)(C)CO2
IC50: 8500 nM

C#CCCCC(=O)c1cc(C(C)(C)C)c(O)c(C(C)(C)C)c1 [TEBUFELONE]
IC50: 3000 nM

CS(=O)(=O)c1ccc(C#CC(=O)c2cccc(O)c2)cc1
IC50: 300 nM

CC1Cc2c(CCc3ccc(-c4ccccc4)cn3)ccc3c2C(S1)C(CC(C)(C)Cc1nnn[nH]1)N3Cc1ccc(Cl)cc1 (centres undefined)
IC50: 16 nM

CS(=O)(=O)Nc1ccc(Oc2ccc(F)cc2)s1
IC50: 130 nM

COC1(c2cc(F)cc(OCc3cc(-c4ccccc4)n(-c4ccc(S(C)(=O)=O)cc4)n3)c2)CCOCC1
IC50: 3 nM

CS(=O)(=O)c1ccc(C#CC(=O)c2ccccc2)cc1
IC50: 1000 nM

CCOC(=O)c1ccc2nc(/C=C/C=C\c3ccc(O)c(OC)c3)oc2c1
IC50: 130 nM

COc1cccc(N2CC(C)NC(=O)N2)n1 (centres undefined)
IC50: 5500 nM

CS(=O)(=O)Nc1ccc([N+](=O)[O-])cc1OC1CCCCC1 [NS-398]
IC50: 10000 nM

CC1(C)CCC[C@@]2(C)C1CCC(C=O)[C@@H]2CC=C(C=O)C=O (some centres undefined)
IC50: 7500 nM

CC(C)(C)c1cc(C(=O)CCCC2CC2)cc2c1OCC2(C)C
IC50: 68000 nM

COC1(c2cccc(OCc3ccc4ccccc4c3)c2)CCOCC1
IC50: 10 nM

O=C1NCCN(c2cccnc2-c2ccccc2)N1
IC50: 30000 nM

COc1ccc2c(c1)c(CCN(O)C(N)=O)c(C)n2C(=O)c1ccc(Cl)cc1
IC50: 400 nM

O=C(CC1=CC(Cc2ccc(Cl)c(Cl)c2)c2ccccc21)N1CCOCC1 (centres undefined)
IC50: 870 nM

CCOC(=O)c1ccc2oc(/C=C/C=C\c3ccc(O)c(O)c3)nc2c1
IC50: 20 nM

Cc1ccc(-c2cc(C(F)(F)F)nn2-c2ccc(S(N)(=O)=O)cc2)cc1 [CELECOXIB]
IC50: 10000 nM

Nc1cccc(N2CCNC(=O)N2)c1
IC50: 178000 nM

NS(=O)(=O)c1ccc(-n2nc(C(F)(F)F)cc2-c2ccn(O)c(=O)c2)cc1
IC50: 4900 nM

CC(C)(C)c1cc(C(=O)CCCC#N)cc2c1OCC2(C)C
IC50: 6000 nM

FC(F)(F)c1cccc(Nc2ccccc2-c2n[nH]c(=S)s2)c1
IC50: 770 nM

CC1=C(CCCC(=O)N2CCOCC2)c2cc(Cl)ccc2C1Cc1ccccc1 (centres undefined)
IC50: 950 nM

NS(=O)(=O)c1ccc(C#Cc2ccc(=O)n(O)c2)cc1
IC50: 68000 nM

CC1(C)Cc2c(-c3ccccc3)c(-c3ccc(Cl)cc3)c(CC(=O)O)n2C1 [LICOFELONE]
IC50: 180 nM

COC1(c2cc(F)cc(OCCc3c[nH]c4ccccc34)c2)CCOCC1
IC50: 850 nM

O=C1NCCN(c2ncccc2-c2cccs2)N1
IC50: 8200 nM

CC1(C)Cc2c(-c3ccccc3)c(-c3ccc([N+](=O)[O-])cc3)c(CC(=O)O)n2C1
IC50: 1500 nM

CC(C)(C)c1cc(C(=O)CCCC2CC2)cc2c1OCCC2(C)C
IC50: 8000 nM

COc1cc(/C=C\C=C\c2nc3ccc(CO)cc3o2)ccc1O
IC50: 300 nM

Cc1ccc(-c2c(-c3ccc(S(C)(=O)=O)cc3)cn3c2CCC3)cc1
IC50: 10000 nM

Cc1cc(C)cc(N2CCNC(=O)N2)c1
IC50: 12000 nM

NC(=O)C1(c2cccc(Sc3ccc(-n4cccc4)cc3)c2)CCOCC1
IC50: 270 nM

CS(=O)(=O)c1ccccc1C#Cc1ccc(=O)n(C(F)F)c1
IC50: 3400 nM

COc1ccc(C(=O)/C=C/c2ccc(O)c(O)c2)c(OC)c1
IC50: 40 nM

O=C1NCCN(c2ccccc2)N1
IC50: 21000 nM

N#Cc1cc(-c2ccoc2)c2ccc(OCc3cccc(C4(O)CCOCC4)n3)cc2c1
IC50: 15 nM

O=C1NCCN(c2ccoc2-c2ccccc2)N1
IC50: 4900 nM

COC1(c2cccc(COc3ccc4c(-c5ccccc5)c5c(cc4c3)C(=O)OC5)c2)CCOCC1
IC50: 14 nM

CCOC(=O)c1c(Cc2ccc(OC)cc2)[nH]c2c1cc(O)c1ccccc12
IC50: 150 nM

CCOC(=O)c1c(Cc2cccc(Cl)c2)[nH]c2cc(-c3ccccc3)c(O)cc12
IC50: 1200 nM

O=C1NCCN(c2cccc([N+](=O)[O-])c2)N1
IC50: 49000 nM

Cc1nccn1-c1ccc(Sc2cccc(C3(C(N)=O)CCOCC3)c2)cc1
IC50: 140 nM

COCCOCC1CN(c2ccccc2)NC(=O)N1 (centres undefined)
IC50: 14000 nM

CSc1cccc(N2CCNC(=O)N2)c1
IC50: 14000 nM

COC1(c2cc(F)cc(OCC3=NN(c4ccccc4)C(c4ccccc4)C3)c2)CCOCC1 (centres undefined)
IC50: 570 nM

CS(=O)(=O)c1cccc(C#Cc2ccc(=O)n(C(F)F)c2)c1
IC50: 3200 nM

O=C1NCCN(c2cccc(F)c2)N1
IC50: 19000 nM

O=C(CCCC1=CCc2ccccc21)N1CCOCC1
IC50: 2060 nM

CC1CN(c2cccc(Cl)c2)NC(=O)N1 (centres undefined)
IC50: 2700 nM

NS(=O)(=O)c1ccccc1C#Cc1ccc(=O)n(O)c1
IC50: 10000 nM

CS(=O)(=O)c1ccc(-n2nc(C(F)(F)F)cc2-c2ccn(O)c(=O)c2)cc1
IC50: 350 nM

NS(=O)(=O)c1ccc(N2N=C(C(F)(F)F)CC2c2c[nH]c3ccccc23)cc1 (centres undefined)
IC50: 41000 nM

COC1(c2cc(F)cc(OCc3ccc4c(ccc(=O)n4C)c3)c2)CCOCC1 [ZD-2138]
IC50: 330 nM

COc1cc(/C=C\C=C\c2nc3ccccc3o2)ccc1O
IC50: 330 nM

COc1ccc(-c2cnsc2-c2ccc(OC)cc2)cc1
IC50: 20000 nM

CCOC(=O)c1c(Cc2cccc(Cl)c2)[nH]c2ccc(O)cc12
IC50: 2000 nM

COc1cc(O)cc(/C=C/C=C/C(=O)NCCN2CCC(OC(c3ccccc3)c3ccccc3)CC2)c1
IC50: 150 nM

COc1ccc(-c2ssc(=S)c2-c2ccc(OC)cc2)cc1
IC50: 10000 nM
